Experimental data as given in US10702518B2, “TAF1 inhibitors for the therapy of cancer” (CeMM—Forschungszentrum für Molekulare Medizin GmbH, priority 2016, dated 2020).
pKd: −log10 of the molar value. Entries after “also recorded” stand apart in the source; their conditions may differ.

Tests used:
[1] = test system: bromodomains of BRD4 (1), BRD4 (2), BRD9, CREBBP, EP300 and TAF1 (2); assay: BromoELECT bromodomain panel; format: binding; conditions: 10 μM
Procedure: (§1) . The assay was done in duplicate (mean±STD); (b) BromoKdELECT assay for CeMMEC1 against TAF1 (2), BRD9, CREBBP and EP300 bromodomains (11 dilutions, from 10 to 0.017 μM). (c) not used (d) KinomeScan profile for CeMMEC1 (10 μM). Bubbles indicate the percentage of inhibition of the binding of the analyzed kinase to an immobilized ligand. (e) BromoELECT assay for CeMMEC1 and analogs A1, A2, 05, 10, 13, 24, 25, 26, 27, 29, 33 and 39 (10 μM) against BRD4 (1), BRD4 (2), BRD9, CREBBP, EP300 and TAF1 (2). (f, g) Docking poses of analog 30 to TAF1 (green) and BRD4 (magenta). (h) Docking of compound 29 to TAF1, no suitable pose could be identified for BRD4. (i) BromoELECT assay for analog 29 (10 μM) against BRD4 (1), BRD9, CREBBP, EP300 and TAF1 (2).

[2] = test system: REDS3 cells; assay: RFP reporter expression in REDS3 cells (live cell imaging); format: cell-based, human; conditions: for RFP expression in REDS3 cells: single agent
Procedure: Cells were seeded on clear flat bottom 96-well or 384-well plates (Corning) and treated with the indicated compounds for the specified conditions. Live cell imaging pictures were taken with the Operetta High Content Screening System (PerkinElmer), 20× objective and non-confocal mode.
Only RFP-positive nuclei were detected and counted.
The increase of RFP fluorescence, detected with the Operetta High Content Screening System (PerkinElmer), 20× objective and non-confocal mode, was used as read-out.
Briefly, the screening was divided in three parts called respectively 1) primary screening, 2) follow up and 3) validation. During the primary screening REDS3 cells were treated with 10 μM of every compound, and live cell imaging pictures were taken in order to assess their ability to induce RFP expression 24 hours later.

[3] = biological target: T1, BRD4 (BD2) (Homo sapiens, UniProt O60885); assay: AlphaLISA, second bromodomain of BRD4; format: binding; conditions: 10 μM
T1 construct: AlphaLISA assays for the first (black columns, BD1) and the second (grey columns, BD2) bromodomains of BRD4
Excerpt: (§4) The Amplified Luminescent Proximity Homogenous Assay (AlphaLISA©) is the homogenous and chemiluminescence-based method, used to explore the direct interaction of the identified small molecules with BRD4 and therefore, measure the IC50 values of the direct BRD4 inhibitors.
(§5) Briefly, in this assay, the biotinylated histone peptide substrate is captured by streptavidin-coupled donor beads. The GST-tagged bromodomain is recognized and bound by an anti-GST antibody conjugated with an acceptor bead. In absence of an inhibitor, the bromodomain binds to histone peptide substrate. […] The event of a signal (alpha count) can only take place when the interaction partners are in proximity (<200 nm).
(§6) The AlphaLISA was performed for both bromodomains of BRD4 using the BRD4 (BD1) Inhibitor Screening Kit (BPS Bioscience) and BRD4 (BD2) Inhibitor Screening Kit (BPS Bioscience) following the manufacturer's protocol. For the GST full length BRD4 purified from BL21 cells, a mixture of acetylated substrates from the BD1 and BD2 Inhibitor Screening Kit reported above was used.
(§7) Compounds were tested at a final assay concentration of 10 μM in duplicates. […] Reaction was initiated by adding one of the two bromodomains (BD1 or BD2) or the GST full length BRD4. […]

[4] = test system: THP1 cells; assay: Cell viability of THP1 cells, combination with (S)-JQ1; format: cell-based, human
[5] = test system: THP1 cells; assay: Cell cycle assay in THP1 cells; conditions: 48 hours
Procedure: (e) Quantification of cells in S-phase by staining the nuclei with PI and analyzing DNA content by FACS. […] Three different biological replicates were performed and 30,000 cells were analysed each time (mean±STD).
For cell cycle analysis, cells were fixed with 70% ethanol for 24 hours, washed with PBS/0.1%-Tween and incubated with RNase for 20 minutes. Nuclei were stained with 5 μg/ml PI (propidium iodide, Sigma) for 10 minutes prior to FACS analysis (BD FACSCalibur Flow Cytometer).

[6] = biological target: T2, BRD4 (BD1) (Homo sapiens, UniProt O60885); assay: AlphaLISA, first bromodomain of BRD4; format: binding; conditions: 10 μM
T2 construct: AlphaLISA assays for the first (black columns, BD1) and the second (grey columns, BD2) bromodomains of BRD4
Excerpt: as §4, §5, §6, §7

[7] = biological target: T3, EP300 (Homo sapiens, UniProt Q09472); assay: BromoScan / BromoKdELECT, EP300; format: binding
T3 sequence (Q09472 1049-1156 limits assumed): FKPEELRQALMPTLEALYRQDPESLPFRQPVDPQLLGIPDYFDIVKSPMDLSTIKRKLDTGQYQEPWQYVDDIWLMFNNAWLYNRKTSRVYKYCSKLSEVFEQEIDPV
Procedure: (§2) Bubbles indicate the percentage of inhibition of the binding of the analyzed bromodomains to an acetylated substrate. […] (g) BromoKdELECT assay for CeMMEC1 against TAF1 (2). […] (i) Docking of CeMMEC1 to the second bromodomain of TAF1. 3D model (top panel) and 2D ligand interaction diagram (bottom panel). Red dots in the 3D model indicate water molecules.
(§3) (c) not used (d) KinomeScan profile for CeMMEC1 (10 μM). Bubbles indicate the percentage of inhibition of the binding of the analyzed kinase to an immobilized ligand.

[8] = test system: 97 representative kinases; assay: KinomeScan profile; format: binding; conditions: 10 μM; 97 kinases
Procedure: as §1

[9] = test system: H23 cells; assay: Cell viability of H23 cells, combination with (S)-JQ1; format: cell-based
[10] = test system: THP1 cells; assay: AnnexinV apoptosis assay in THP1 cells; conditions: 72 hours
Procedure: (f) Quantification of AnnexinV positive cells from immunofluorescence images. […] At least 3 biological replicates were performed and more than 1,500 cells were quantified for each point (mean±STD).
Apoptotic cells were detected using the Annexin V-FITC Apoptosis detection kit (Abcam) according to the manufacturer's instruction. Apoptosis quantification was performed with the Harmony software (PerkinElmer) for nuclei and cytoplasm detection and analysis, adapted for the nucleus diameter range and cell shape of the specific cell line used.

[11] = biological target: CREBBP (Homo sapiens, UniProt Q92793); assay: BromoScan / BromoELECT / BromoKdELECT, CREBBP; format: binding
CREBBP, sequence (Q92793 1085-1192 limits assumed): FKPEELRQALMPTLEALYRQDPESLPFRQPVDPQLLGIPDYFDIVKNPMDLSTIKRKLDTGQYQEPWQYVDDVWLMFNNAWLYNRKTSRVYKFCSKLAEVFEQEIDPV
Procedure: as §2, §3

[12] = biological target: T4, TAF1 (Homo sapiens, UniProt P21675); assay: TAF1 binding assay (FRET/HTRF peptide displacement); conditions: FRET analysis, data not shown
T4 construct: TAF1 second bromodomain (Uniprot P21675, residues 1501-1634); made in house; host or cells: E. coli BL21 (DE3)-R3-pRARE2 (stated for the His-tagged construct)
T4 sequence (P21675 1501-1634): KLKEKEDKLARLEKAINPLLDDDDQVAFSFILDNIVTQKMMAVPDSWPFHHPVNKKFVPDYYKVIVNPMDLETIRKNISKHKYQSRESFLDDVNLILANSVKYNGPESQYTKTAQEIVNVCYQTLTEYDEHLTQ
Procedure: TAF1 binding assays were conducted using the EPIgeneous™ Binding Domain kit B (Cisbio Bioassays) according to manufacturer's instructions. Binding was determined by the displacement of an acetylated biotin-peptide from a GST tagged TAF1 protein using HTRF with a Eu3+ conjugated GST antibody donor and streptavidin conjugated acceptor. Compounds were dispensed into assay plates, ProxiPlate-384 Plus (Perkin Elmer) using an Echo 525 Liquid Handler (Labcyte). Binding assays were conducted in a final volume of 20 μl with 5 nM TAF1-GST, 50 nM peptide (SGRGK (ac)GGK (ac)GLGK (ac)GGAK (ac)RHRK (biotin)-acid), 6.25 nM Streptavidin-XL665, 1:200 Anti-GST-Eu3+ cryptate and 0.1% DMSO. Assay reagents were dispensed into plates using a Multidrop combi (Thermo Scientific) and incubated at room temperature for 3 hours. Fluorescence was measured using a PHERAstar microplate reader (BMG) using the HTRF module with dual emission protocol (A=ex. 320 nm em. 665 nm, B=ex. 320 nm em. 620 nm). Raw data were processed to give an HTRF ratio (channel A/B*10000), which was used to generate IC50 curves.

[13] = test system: KBM7 cells; assay: CellTiterGlo viability of control and TAF1 downregulated KBM7 cells; conditions: shRNA TAF1 vs control, 96 hours
[14] = biological target: BRD4 (Homo sapiens, UniProt O60885); assay: BromoScan profile, BRD4; format: binding; conditions: 10 μM
Excerpt: as §2

[15] = biological target: T5, BRD9 (Homo sapiens, UniProt Q9H8M2); assay: BromoScan / BromoKdELECT, BRD9; format: binding
T5 sequence (Q9H8M2 136-240 limits assumed): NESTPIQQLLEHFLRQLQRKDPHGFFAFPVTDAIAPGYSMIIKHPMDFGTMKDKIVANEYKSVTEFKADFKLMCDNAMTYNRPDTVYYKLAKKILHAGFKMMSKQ
Procedure: as §2, §3

[16] = test system: c-MYC expression in WT-KBM7; assay: c-MYC expression by RT-PCR in WT-KBM7; format: cell-based, human; conditions: 1, 10 and 20 μM, 24 hours
Procedure: (c) Percentage of c-MYC expression in WT-KBM7 treated with the selected compounds, assessed by RT-PCR. 1, 10 and 20 μM of each compound were used to treat cells for 24 hours; DMSO was used as negative control and (S)-JQ1 as positive control. Three biological replicates were performed (mean±STD).
RNA extraction was performed with TRIzol Reagent (Life Technologies) according to the manufacturer's protocol and Reverse Transcription (RT) was performed using the High Capacity cDNA Reverse Transcription Kit (Applied Biosystems) following the standard protocol.
QPCR was performed using the Power SYBR Green Master mix (Invitrogen) as described in the manufacturer's protocol.
Real-time amplification results were normalized to the endogenous housekeeping genes Actin or GAPDH. The relative quantities were calculated using the comparative CT (Cycle Threshold) Method (ΔΔCT Method).

[17] = biological target: T6, TAF1 (2) (Homo sapiens, UniProt P21675); assay: BromoScan / BromoELECT / BromoKdELECT, TAF1 (2); format: binding
T6 construct: the second bromodomain of TAF1 (TAF1 (2)); purchased DiscoverX Corporation (contract assay); host or cells: T7 phage in E. coli host derived from BL21
T6 sequence (P21675 1519-1628 limits assumed): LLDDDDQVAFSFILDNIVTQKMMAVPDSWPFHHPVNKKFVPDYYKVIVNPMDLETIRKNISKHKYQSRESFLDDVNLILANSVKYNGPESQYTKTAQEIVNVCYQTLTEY
Procedure: as §2, §3

Compound: Cn1cc(C(=O)Nc2ccc3c(c2)OCCO3)c(=O)n(C)c1=O [Compound 32]
- binding to the tested bromodomain proteins [1]: bound neither of the tested bromodomain proteins
- RFP expression in REDS3 cells in combination with (S)-JQ1 [2]: The same effect was not achieved
- RFP expression in REDS3 cells [2]: nor did they induce RFP expression in REDS3 cells

Compound: Cn1cc(C(=O)Nc2ccc3c(c2)OCCO3)c2ccccc2c1=O [CeMMEC1]
- binding to the second bromodomain of BRD4 [3]: neither able to bind the first nor the second bromodomain of BRD4
- cell viability, combination with (S)-JQ1 [4]: more efficiently impairing cell viability than the individual treatments
- synergy with (S)-JQ1 (Bliss independence test) [4]: confirmed the synergism
- number of cells in S-phase [5]: clear and dose-dependent decrease of the number of cells in S-phase
- binding to the first bromodomain of BRD4 [6]: neither able to bind the first nor the second bromodomain of BRD4
- binding constant, EP300 ([7]; BromoKdELECT (FIG. 8b)): sub-micromolar binding constants
- binding to EP300 ([7]; BromoScan, 10 μM): high affinity
- inhibition of kinases [8]: ≤ 60%
- cell viability, combination with (S)-JQ1 [9]: more efficiently impairing cell viability than the individual treatments
- synergy with (S)-JQ1 (Bliss independence test) [9]: confirmed the synergism
- apoptosis (AnnexinV staining) [10]: induced apoptosis
- binding constant, CREBBP ([11]; BromoKdELECT (FIG. 8b)): sub-micromolar binding constants
- binding to CREBBP ([11]; BromoScan/BromoELECT, 10 μM): high affinity
- displacement of tetra-acetylated H4 peptide from TAF1 binding site [12]: displaced a tetra-acetylated H4 peptide with good efficacy
- cell viability with TAF1 downregulation [13]: impaired cell viability in TAF1 downregulated cells
- binding to BRD4 [14]: only bound BRD4 very weakly
- RFP expression in REDS3 cells in combination with (S)-JQ1 [2]: further boosted RFP expression beyond the increase in single treatments
- RFP expression in REDS3 cells [2]: expressed RFP detected by live cell imaging in a dose-dependent manner; also recorded: comparable induction of RFP expression in REDS3 cells
- binding constant, BRD9 ([15]; BromoKdELECT (FIG. 8b)): sub-micromolar binding constants
- binding to BRD9 ([15]; BromoScan, 10 μM): high affinity
- c-MYC expression [16]: capable of reducing the expression of this oncogene in a dose-dependent manner
- binding constant, TAF1 (2) ([17]; BromoKdELECT (FIG. 8b)): sub-micromolar binding constants
- pKd ([17]; BromoKdELECT assay (FIG. 4g)): 5.85
- binding to TAF1 (2) ([17]; BromoScan/BromoELECT, 10 μM): high affinity

Compound: Cn1cc(C(=O)Nc2ccc3c(c2)OCCO3)c(=O)[nH]c1=O [Compound 35]
- binding to the tested bromodomain proteins [1]: bound neither of the tested bromodomain proteins
- RFP expression in REDS3 cells in combination with (S)-JQ1 [2]: The same effect was not achieved
- RFP expression in REDS3 cells [2]: nor did they induce RFP expression in REDS3 cells
